Laboratory results reported in PubChem BioAssay (NCI).
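Where inhibition never reached the appropriate level, the endpoint shown equals the highest concentration tested. Otherwise, values were interpolated linearly from a five-concentration, 48-hour dose response in 96-well plates. Abbreviation: GI50, concentration required for 50% inhibition of growth. TGI denotes the concentration required for complete inhibition of growth.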

How the values were obtained:
Test in all cases: NCI tumour cell line growth inhibition, 48 h
786-0 renal = tested on: 786-0 renal
A498 renal = tested on: A498 renal
ACHN renal = tested on: ACHN renal
BT-549 breast = tested on: BT-549 breast
CAKI-1 renal = tested on: CAKI-1 renal
CCRF-CEM leukemia = tested on: CCRF-CEM leukemia
COLO 205 colon = tested on: COLO 205 colon
DU-145 prostate = tested on: DU-145 prostate
EKVX NSCLC = tested on: EKVX NSCLC
HCC-2998 colon = tested on: HCC-2998 colon
HCT-116 colon = tested on: HCT-116 colon
HCT-15 colon = tested on: HCT-15 colon
HL-60(TB) leukemia = tested on: HL-60(TB) leukemia
HOP-62 NSCLC = tested on: HOP-62 NSCLC
HOP-92 NSCLC = tested on: HOP-92 NSCLC
HS 578T breast = tested on: HS 578T breast
HT29 colon = tested on: HT29 colon
IGROV1 ovarian = tested on: IGROV1 ovarian
K-562 leukemia = tested on: K-562 leukemia
KM12 colon = tested on: KM12 colon
LOX IMVI melanoma = tested on: LOX IMVI melanoma
M14 melanoma = tested on: M14 melanoma
MALME-3M melanoma = tested on: MALME-3M melanoma
MCF7 breast = tested on: MCF7 breast
MDA-MB-231 breast = tested on: MDA-MB-231 breast
MDA-MB-435 = tested on: MDA-MB-435
MOLT-4 leukemia = tested on: MOLT-4 leukemia
NCI-H23 lung = tested on: NCI-H23 lung
NCI-H460 lung = tested on: NCI-H460 lung
NCI-H522 lung = tested on: NCI-H522 lung
NCI/ADR-RES ovarian = tested on: NCI/ADR-RES ovarian
OVCAR-4 ovarian = tested on: OVCAR-4 ovarian
OVCAR-5 ovarian = tested on: OVCAR-5 ovarian
OVCAR-8 ovarian = tested on: OVCAR-8 ovarian
PC-3 prostate = tested on: PC-3 prostate
RPMI-8226 leukemia = tested on: RPMI-8226 leukemia
RXF 393 renal = tested on: RXF 393 renal
SF-268 CNS = tested on: SF-268 CNS
SF-295 CNS = tested on: SF-295 CNS
SF-539 CNS = tested on: SF-539 CNS
SK-MEL-2 melanoma = tested on: SK-MEL-2 melanoma
SK-MEL-28 melanoma = tested on: SK-MEL-28 melanoma
SK-MEL-5 melanoma = tested on: SK-MEL-5 melanoma
SK-OV-3 ovarian = tested on: SK-OV-3 ovarian
SN12C renal = tested on: SN12C renal
SNB-19 CNS = tested on: SNB-19 CNS
SNB-75 CNS = tested on: SNB-75 CNS
SR leukemia = tested on: SR leukemia
SW-620 colon = tested on: SW-620 colon
T-47D breast = tested on: T-47D breast
TK-10 renal = tested on: TK-10 renal
U251 CNS = tested on: U251 CNS
UACC-257 melanoma = tested on: UACC-257 melanoma
UACC-62 melanoma = tested on: UACC-62 melanoma
UO-31 renal = tested on: UO-31 renal

Q: How did the GI50 (786-0 renal) turn out when `COc1ccc2c(c1)c(CC(=O)[Se]CC#N)c(C)n2C(=O)c1ccc(Cl)cc1` was run?
A: 1880 nM

Q: What about the TGI (786-0 renal) of the same molecule?
A: 3.61 µM

Q: And the GI50 (A498 renal)?
A: 2040 nM

Q: What about the TGI (A498 renal) of the same molecule?
A: 4.75 µM

Q: And the GI50 (ACHN renal)?
A: 2110 nM

Q: What about the TGI (ACHN renal) of the same molecule?
A: 5.61 µM

Q: And the GI50 (BT-549 breast)?
A: 2050 nM

Q: And the TGI (BT-549 breast)?
A: 4.68 µM

Q: And the GI50 (CAKI-1 renal)?
A: 1780 nM

Q: What about the TGI (CAKI-1 renal) of the same molecule?
A: 3.53 µM

Q: And the GI50 (CCRF-CEM leukemia)?
A: 2600 nM

Q: And the TGI (CCRF-CEM leukemia)?
A: > 100 µM

Q: And the GI50 (COLO 205 colon)?
A: 1590 nM

Q: And the TGI (COLO 205 colon)?
A: 3.1 µM

Q: And the GI50 (DU-145 prostate)?
A: 1790 nM

Q: And the TGI (DU-145 prostate)?
A: 3.48 µM

Q: And the GI50 (EKVX NSCLC)?
A: 1420 nM

Q: What about the TGI (EKVX NSCLC) of the same molecule?
A: 3.45 µM

Q: And the GI50 (HCC-2998 colon)?
A: 1790 nM

Q: And the TGI (HCC-2998 colon)?
A: 3.5 µM

Q: What about the GI50 (HCT-116 colon) of the same molecule?
A: 359 nM

Q: And the TGI (HCT-116 colon)?
A: 1270 nM

Q: And the GI50 (HCT-15 colon)?
A: 1200 nM

Q: And the TGI (HCT-15 colon)?
A: 3000 nM

Q: And the GI50 (HL-60(TB) leukemia)?
A: 2950 nM

Q: And the TGI (HL-60(TB) leukemia)?
A: > 100 µM

Q: What about the GI50 (HOP-62 NSCLC) of the same molecule?
A: 1110 nM

Q: And the TGI (HOP-62 NSCLC)?
A: 3.2 µM

Q: And the GI50 (HOP-92 NSCLC)?
A: 1750 nM

Q: And the TGI (HOP-92 NSCLC)?
A: 4.7 µM

Q: And the GI50 (HS 578T breast)?
A: 2620 nM

Q: And the TGI (HS 578T breast)?
A: 8.91 µM

Q: What about the GI50 (HT29 colon) of the same molecule?
A: 2010 nM

Q: And the TGI (HT29 colon)?
A: 5.03 µM

Q: And the GI50 (IGROV1 ovarian)?
A: 1700 nM

Q: And the TGI (IGROV1 ovarian)?
A: 3.82 µM

Q: And the GI50 (K-562 leukemia)?
A: 3.17 µM

Q: What about the TGI (K-562 leukemia) of the same molecule?
A: > 100 µM

Q: And the GI50 (KM12 colon)?
A: 1460 nM

Q: What about the TGI (KM12 colon) of the same molecule?
A: 3.16 µM

Q: And the GI50 (LOX IMVI melanoma)?
A: 1910 nM

Q: What about the TGI (LOX IMVI melanoma) of the same molecule?
A: 4.12 µM

Q: What about the GI50 (M14 melanoma) of the same molecule?
A: 1430 nM

Q: And the TGI (M14 melanoma)?
A: 3.02 µM

Q: And the GI50 (MALME-3M melanoma)?
A: 1940 nM

Q: And the TGI (MALME-3M melanoma)?
A: 5.21 µM

Q: What about the GI50 (MCF7 breast) of the same molecule?
A: 2020 nM

Q: And the TGI (MCF7 breast)?
A: 4.9 µM

Q: And the GI50 (MDA-MB-231 breast)?
A: 2200 nM

Q: What about the TGI (MDA-MB-231 breast) of the same molecule?
A: 6.6 µM

Q: And the GI50 (MDA-MB-435)?
A: 1790 nM

Q: What about the TGI (MDA-MB-435) of the same molecule?
A: 3.44 µM

Q: What about the GI50 (MOLT-4 leukemia) of the same molecule?
A: 3.37 µM

Q: What about the TGI (MOLT-4 leukemia) of the same molecule?
A: > 100 µM

Q: What about the GI50 (NCI-H23 lung) of the same molecule?
A: 2360 nM

Q: What about the TGI (NCI-H23 lung) of the same molecule?
A: 6.19 µM

Q: What about the GI50 (NCI-H460 lung) of the same molecule?
A: 1970 nM

Q: What about the TGI (NCI-H460 lung) of the same molecule?
A: 5.47 µM

Q: What about the GI50 (NCI-H522 lung) of the same molecule?
A: 2070 nM

Q: What about the TGI (NCI-H522 lung) of the same molecule?
A: 4.52 µM

Q: What about the GI50 (NCI/ADR-RES ovarian) of the same molecule?
A: 2420 nM

Q: What about the TGI (NCI/ADR-RES ovarian) of the same molecule?
A: 6.97 µM

Q: And the GI50 (OVCAR-4 ovarian)?
A: 2180 nM

Q: And the TGI (OVCAR-4 ovarian)?
A: 5.82 µM

Q: And the GI50 (OVCAR-5 ovarian)?
A: 1920 nM

Q: What about the TGI (OVCAR-5 ovarian) of the same molecule?
A: 4.03 µM

Q: And the GI50 (OVCAR-8 ovarian)?
A: 1860 nM

Q: What about the TGI (OVCAR-8 ovarian) of the same molecule?
A: 3.86 µM

Q: What about the GI50 (PC-3 prostate) of the same molecule?
A: 2260 nM

Q: And the TGI (PC-3 prostate)?
A: 7.88 µM

Q: And the GI50 (RPMI-8226 leukemia)?
A: 3.04 µM

Q: What about the TGI (RPMI-8226 leukemia) of the same molecule?
A: 10.6 µM

Q: And the GI50 (RXF 393 renal)?
A: 1650 nM

Q: And the TGI (RXF 393 renal)?
A: 3.37 µM

Q: And the GI50 (SF-268 CNS)?
A: 2280 nM

Q: And the TGI (SF-268 CNS)?
A: 5.43 µM

Q: What about the GI50 (SF-295 CNS) of the same molecule?
A: 1720 nM

Q: And the TGI (SF-295 CNS)?
A: 4.2 µM

Q: What about the GI50 (SF-539 CNS) of the same molecule?
A: 2040 nM

Q: What about the TGI (SF-539 CNS) of the same molecule?
A: 4.43 µM

Q: What about the GI50 (SK-MEL-2 melanoma) of the same molecule?
A: 1990 nM

Q: And the TGI (SK-MEL-2 melanoma)?
A: 4.5 µM

Q: And the GI50 (SK-MEL-28 melanoma)?
A: 2380 nM

Q: What about the TGI (SK-MEL-28 melanoma) of the same molecule?
A: 6.92 µM

Q: What about the GI50 (SK-MEL-5 melanoma) of the same molecule?
A: 1780 nM

Q: And the TGI (SK-MEL-5 melanoma)?
A: 3.23 µM

Q: What about the GI50 (SK-OV-3 ovarian) of the same molecule?
A: 2770 nM

Q: What about the TGI (SK-OV-3 ovarian) of the same molecule?
A: 8.16 µM

Q: And the GI50 (SN12C renal)?
A: 3.62 µM

Q: And the TGI (SN12C renal)?
A: 12.7 µM

Q: What about the GI50 (SNB-19 CNS) of the same molecule?
A: 3.81 µM

Q: What about the TGI (SNB-19 CNS) of the same molecule?
A: 14.6 µM

Q: What about the GI50 (SNB-75 CNS) of the same molecule?
A: 1910 nM

Q: What about the TGI (SNB-75 CNS) of the same molecule?
A: 5.75 µM

Q: And the GI50 (SR leukemia)?
A: 2270 nM

Q: What about the TGI (SR leukemia) of the same molecule?
A: > 100 µM

Q: What about the GI50 (SW-620 colon) of the same molecule?
A: 1730 nM

Q: And the TGI (SW-620 colon)?
A: 3.99 µM

Q: And the GI50 (T-47D breast)?
A: 2290 nM

Q: What about the TGI (T-47D breast) of the same molecule?
A: 6.15 µM

Q: What about the GI50 (TK-10 renal) of the same molecule?
A: 2660 nM

Q: What about the TGI (TK-10 renal) of the same molecule?
A: 7.09 µM

Q: What about the GI50 (U251 CNS) of the same molecule?
A: 2290 nM

Q: And the TGI (U251 CNS)?
A: 6.35 µM

Q: And the GI50 (UACC-257 melanoma)?
A: 2100 nM

Q: What about the TGI (UACC-257 melanoma) of the same molecule?
A: 5.19 µM

Q: What about the GI50 (UACC-62 melanoma) of the same molecule?
A: 2160 nM

Q: And the TGI (UACC-62 melanoma)?
A: 5.56 µM

Q: And the GI50 (UO-31 renal)?
A: 1180 nM

Q: And the TGI (UO-31 renal)?
A: 3.94 µM
